Test systems include SW-620; HOP-92; UO-31; M14; HCT-15; TK-10; SF-539; MDA-N; T47D; SK-MEL-2; HOP-62; HL-60; SK-MEL-5; OVCAR-3; SN12C; BT-549; CAKI-1; HCT-116; NCI-H522.
Holding throughout (assay): growth of human tumour cells (NCI), 48 h

Data on eleven compounds can be found in ChEMBL document CHEMBL1201862, “PubChem BioAssay data set” (2004).

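Compound exposure: 48 hours, 5 concentrations, 96-well plates. At the GI50, growth is halved.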 Active and inactive are the calls of the source. No stated cut-off is given here; in the data, active = GI50 up to about 1.1 µM and inactive = higher.

As to `CCOC(=O)c1ccc(Nc2cnc3ccc(C(F)(F)F)cc3n2)cc1`, the GI50 in the assay on SW-620 is 15.2 µM (inactive); with HOP-92 it was 6.18 µM (inactive); with UO-31, 20.1 µM (inactive); in the assay on M14 it was 22.7 µM (inactive); with HCT-15 it was 14.8 µM; in the assay on TK-10, 12.3 µM (inactive). The GI50 in the assay with SF-539 is 28.1 µM (inactive); in the assay on MDA-N, 17.9 µM (inactive); in the assay with T47D, 18.7 µM (inactive); with SK-MEL-2, 15.1 µM (inactive); with HOP-62 it was 20.6 µM (inactive); in the assay with HL-60, 15.9 µM (inactive). Besides, the GI50 with SK-MEL-5 was 15.5 µM (inactive); in the assay with OVCAR-3, 19.5 µM (inactive); with SN12C, 13.9 µM (inactive); with BT-549 it was 15.8 µM (inactive); in the assay on CAKI-1, 16.9 µM (inactive); in the assay with HCT-116, 14.8 µM (inactive).

Regarding `Cc1cc(C)c2cc(N)c(Cl)nc2n1`, the GI50 in the assay with SW-620 is > 100 µM (inactive); in the assay on HOP-92, > 100 µM (inactive); in the assay with UO-31, 63.4 µM (inactive); with M14 it was > 100 µM (inactive); in the assay with HCT-15, 60.5 µM; with TK-10, > 100 µM (inactive). Moreover, the GI50 in the assay on NCI-H522 was 18.7 µM (inactive); in the assay on SF-539 it was > 100 µM (inactive); with MDA-N, > 100 µM (inactive); in the assay on T47D it was > 100 µM (inactive); in the assay with SK-MEL-2 it was > 100 µM (inactive); with HL-60, > 100 µM (inactive). In addition, the GI50 with SK-MEL-5, in the assay with SN12C, in the assay on BT-549, in the assay on CAKI-1 and with HCT-116 was > 100 µM (inactive) in each case.

On to `COC(=O)/C=C/c1cc2c(cc1-c1c(C(=O)O)cc(OC)c(OC)c1OC)OCO2`, for which the GI50 in the assay on SW-620 is > 10 µM (inactive); in the assay with HOP-92, > 10 µM (inactive); in the assay with M14, > 10 µM (inactive); in the assay on HCT-15 it was above 10 µM; in the assay on TK-10 it was > 10 µM (inactive); in the assay with NCI-H522, > 10 µM (inactive). For the same compound, the GI50 with SF-539, in the assay on MDA-N, in the assay with T47D, in the assay with HOP-62, in the assay on HL-60 and with SK-MEL-5 was > 10 µM (inactive) in each case. Moreover, the GI50 in the assay on OVCAR-3, with SN12C, with BT-549, in the assay on CAKI-1 and with HCT-116 was > 10 µM (inactive) throughout.

In the case of `CCCCn1cnc2c(c(CC#N)nn2-c2ccccc2)c1=N`, the GI50 in the assay on SW-620 is 41.9 µM (inactive); in the assay on HOP-92, 52.2 µM (inactive); with UO-31, 60.4 µM (inactive); in the assay on M14, 53.2 µM (inactive); with HCT-15, 36.8 µM; with TK-10, 64.7 µM (inactive). The GI50 with NCI-H522 was 43.1 µM (inactive); in the assay with MDA-N, 38.1 µM (inactive); with T47D it was 35.7 µM (inactive); in the assay on SK-MEL-2, 23.7 µM (inactive); with HOP-62, > 100 µM (inactive); with HL-60 it was 34 µM (inactive). Further, the GI50 was 20.9 µM (inactive) in the assay on SK-MEL-5; 63.7 µM (inactive) with OVCAR-3; 70.8 µM (inactive) in the assay on SN12C; 37.8 µM (inactive) in the assay with BT-549; > 100 µM (inactive) in the assay with CAKI-1; 48.6 µM (inactive) with HCT-116.

`CCCCCCCCCCCCCCCCCCNc1ccn(C2OC(COP(=O)(O)OCC3OC(n4ccc(NC(=O)CCCCCCCCCCCCCCCCC)nc4=O)C(OC(C)=O)C3OC(C)=O)C(OC(C)=O)C2OC(C)=O)c(=O)n1` (stereo not drawn): the GI50 is > 100 µM (inactive) with SW-620; > 100 µM (inactive) in the assay with UO-31; > 100 µM (inactive) with M14; above 100 µM in the assay with HCT-15; > 100 µM (inactive) in the assay on TK-10; > 100 µM (inactive) in the assay on NCI-H522. In addition, the GI50 in the assay with SF-539, in the assay with MDA-N, in the assay with T47D, in the assay with SK-MEL-2, with HOP-62 and in the assay on HL-60 was > 100 µM (inactive) in each case. In addition, the GI50 in the assay on SK-MEL-5, with OVCAR-3, in the assay with SN12C, in the assay on BT-549, in the assay with CAKI-1 and with HCT-116 was > 100 µM (inactive) each time.

Regarding `C/C=C/C(O)P1(=O)N(Cc2ccccc2)[C@@H]2CCCC[C@H]2N1Cc1ccccc1` (stereo partly drawn), the GI50 in the assay with SW-620 was > 25 µM (inactive); in the assay with UO-31, > 25 µM (inactive); with M14, > 25 µM (inactive); with HCT-15, above 25 µM; in the assay with TK-10 it was > 25 µM (inactive); with NCI-H522, > 25 µM (inactive). The GI50 in the assay with SF-539, in the assay on MDA-N, in the assay on T47D, in the assay with SK-MEL-2, with HOP-62 and in the assay on HL-60 was > 25 µM (inactive) each time. Further, the GI50 in the assay with SK-MEL-5, in the assay on OVCAR-3, in the assay on SN12C, in the assay on BT-549, in the assay with CAKI-1 and in the assay with HCT-116 was > 25 µM (inactive) each time.

For `CCOC(=O)CC/C(C)=N\n1c(Cc2ccc(Cl)cc2)n[nH]c1=O`, the GI50 in the assay with SW-620 was > 100 µM (inactive); in the assay on UO-31, > 100 µM (inactive); in the assay on M14 it was > 100 µM (inactive); in the assay with HCT-15 it was above 100 µM; in the assay on TK-10 it was > 100 µM (inactive); in the assay on NCI-H522, > 100 µM (inactive). Moreover, the GI50 in the assay with SF-539, in the assay with MDA-N, in the assay on T47D, in the assay on SK-MEL-2, in the assay on HOP-62 and in the assay on HL-60 was > 100 µM (inactive) each time. Moreover, the GI50 in the assay on SK-MEL-5, with OVCAR-3, with SN12C, with BT-549, in the assay with CAKI-1 and in the assay on HCT-116 was > 100 µM (inactive) in each case.

Take `C[N+](C)(C)c1ncnc2c1ncn2C1CCCCO1` (stereo not drawn): the GI50 in the assay on SW-620, in the assay on HOP-92, with UO-31, in the assay with M14, in the assay with TK-10 and with NCI-H522 was > 100 µM (inactive) throughout. Moreover, the GI50 in the assay with MDA-N, in the assay on T47D, in the assay on SK-MEL-2, in the assay on HOP-62, in the assay with HL-60 and in the assay with SK-MEL-5 was > 100 µM (inactive) in each case. In addition, the GI50 with OVCAR-3, in the assay with SN12C, with BT-549, in the assay with CAKI-1 and with HCT-116 was > 100 µM (inactive) each time.

Turning to `CCC/C(Cl)=N\OC(=O)Nc1ccc(F)cc1`, the GI50 was 7 µM (inactive) in the assay with SW-620; 4.43 µM (inactive) in the assay on HOP-92; 17.7 µM (inactive) in the assay on UO-31; 14.6 µM (inactive) with M14; 5.82 µM with HCT-15; 15.7 µM (inactive) with TK-10. The GI50 was 1.87 µM (inactive) with NCI-H522; 16.3 µM (inactive) with MDA-N; 7.24 µM (inactive) with T47D; 18.2 µM (inactive) in the assay with SK-MEL-2; 19.2 µM (inactive) in the assay with HOP-62; 1.87 µM (inactive) in the assay with HL-60. Besides, the GI50 in the assay with SK-MEL-5 was 13.3 µM (inactive); with OVCAR-3, 5.24 µM (inactive); in the assay on SN12C it was 16.7 µM (inactive); with BT-549, 15.1 µM (inactive); with CAKI-1, 1.91 µM (inactive); in the assay on HCT-116 it was 16.7 µM (inactive).

For `Cc1cc2oc(=N)c(C#N)c(C)c2cc1C`, the GI50 in the assay with SW-620 was 67.6 µM (inactive); in the assay on HOP-92 it was 44.2 µM (inactive); in the assay with UO-31 it was 45.1 µM (inactive); with M14, 67.6 µM (inactive); in the assay with HCT-15, 42.3 µM; in the assay on TK-10 it was 67.3 µM (inactive). The GI50 was 62.8 µM (inactive) in the assay on SF-539; 96.8 µM (inactive) in the assay on MDA-N; 40.6 µM (inactive) in the assay on T47D; 51.8 µM (inactive) with SK-MEL-2; 52 µM (inactive) with HOP-62; 33.4 µM (inactive) in the assay on HL-60. The GI50 in the assay with SK-MEL-5 is 30.7 µM (inactive); with OVCAR-3 it was 70.1 µM (inactive); with SN12C, 96.2 µM (inactive); with BT-549, 39.4 µM (inactive); in the assay on CAKI-1 it was 57.8 µM (inactive); in the assay with HCT-116, 53.1 µM (inactive).

`CC(C)(C)[Si](C)(C)OCCCCC1CC2(S(=O)(=O)C3=CC=C=C=C3)ON1CC2S(=O)(=O)c1ccccc1` (stereo not drawn): the GI50 is > 100 µM (inactive) in the assay with SW-620; > 100 µM (inactive) with HOP-92; > 100 µM (inactive) with UO-31; > 100 µM (inactive) in the assay on M14; above 100 µM in the assay on HCT-15; > 100 µM (inactive) in the assay with TK-10. Further, the GI50 in the assay with SF-539, in the assay with MDA-N, with T47D, in the assay with SK-MEL-2, in the assay with HOP-62 and with SK-MEL-5 was > 100 µM (inactive) in each case. Besides, the GI50 in the assay with OVCAR-3, with SN12C, with BT-549 and with HCT-116 was > 100 µM (inactive) in each case.
